Where “and” joins values, the source holds several entries; their conditions need not be identical. Equal values may be shown once.
Tests used:
Set-up in all cases: purchased Milipore (Millipore)
[1] = target: T1, Human adrenergic α2B receptor (Homo sapiens, UniProt P18089); experiment: Radioligand binding, adrenergic α2B (Protocol Group B); conditions: Protocol Group B; for Percentage inhibition of ligand binding, Adrenergic α2B (10 nM): 0.01 µM; for Percentage inhibition of ligand binding, Adrenergic α2B (30 nM): 30 nM compound, 0.03 µM; for Percentage inhibition of ligand binding, Adrenergic α2B (0.1 μM): 0.1 μM compound
T1 sequence (P18089 1-450): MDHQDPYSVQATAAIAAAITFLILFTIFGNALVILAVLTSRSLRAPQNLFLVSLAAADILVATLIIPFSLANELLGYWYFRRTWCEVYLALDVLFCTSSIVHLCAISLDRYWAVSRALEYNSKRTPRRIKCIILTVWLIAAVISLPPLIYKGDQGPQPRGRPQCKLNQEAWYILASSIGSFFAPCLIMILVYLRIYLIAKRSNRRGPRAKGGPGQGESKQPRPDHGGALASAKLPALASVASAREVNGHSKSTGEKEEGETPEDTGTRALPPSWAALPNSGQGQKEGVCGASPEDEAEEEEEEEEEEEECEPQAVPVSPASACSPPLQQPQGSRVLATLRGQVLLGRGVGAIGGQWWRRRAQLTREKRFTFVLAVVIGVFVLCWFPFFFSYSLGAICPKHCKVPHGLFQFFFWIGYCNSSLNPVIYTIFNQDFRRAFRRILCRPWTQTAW
Procedure: To evaluate the activity of compounds in radioligand binding assays, Human adrenergic α2B receptor obtained from recombinant cell membrane from Milipore. Binding experiments were carried out in Tris-HCl buffer (50 mM Tris-HCl buffer, pH 7.4, 5 mM Mgcl2, 1 mM Cacl2, 0.2% BSA) as recommended by Milipore. […] Non-specific binding was estimated in the presence of 10 μM Rauwolscine. […] Compounds were screened at various concentrations, using 1% DMSO as vehicle. Biochemical assay results are presented as the percent Inhibition of specific binding in Table B1b, or estimated Ki values in Table B1c.

[2] = target: T2, Human adrenergic α2A receptor (Homo sapiens, UniProt P08913); experiment: Radioligand binding, adrenergic α2A (Protocol Group B); conditions: Protocol Group B; for Percentage inhibition of ligand binding, Adrenergic α2A (0.1 μM): 0.1 μM compound
T2 sequence (P08913 1-465): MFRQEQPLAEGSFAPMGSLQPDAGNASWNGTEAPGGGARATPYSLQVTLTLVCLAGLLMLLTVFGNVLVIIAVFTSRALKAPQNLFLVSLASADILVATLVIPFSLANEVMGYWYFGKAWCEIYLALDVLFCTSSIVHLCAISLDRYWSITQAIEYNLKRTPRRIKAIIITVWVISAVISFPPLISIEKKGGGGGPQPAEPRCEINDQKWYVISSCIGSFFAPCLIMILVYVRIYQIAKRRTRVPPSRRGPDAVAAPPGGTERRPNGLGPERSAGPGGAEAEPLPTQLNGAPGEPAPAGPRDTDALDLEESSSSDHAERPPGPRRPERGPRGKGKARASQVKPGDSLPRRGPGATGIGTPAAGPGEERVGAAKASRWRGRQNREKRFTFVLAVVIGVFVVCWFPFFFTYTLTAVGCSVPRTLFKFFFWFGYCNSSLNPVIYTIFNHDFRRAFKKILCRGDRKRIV
Procedure: To evaluate the activity of compounds in radioligand binding assays, Human adrenergic α2A receptor obtained from recombinant cell membrane from Milipore. Binding experiments were carried out in Tris-HCl buffer (50 mM Tris-HCl buffer, pH 7.4, 5 mM Mgcl2, 1 mM Cacl2, 0.2% BSA) as recommended by Milipore. Compounds were incubated with 2 nM [^3H]MK-912 for 60 min at 25° C. Non-specific binding was estimated in the presence of 10 μM Rauwolscine. Receptor proteins were harvested on 0.33% PEI(poly-ethylenemine) soaked GFC filter mat, the specifically bound [^3H]MK-912 were counted to determine total binding. Compounds were screened at various concentrations, using 1% DMSO as vehicle. percent inhibition of specific binding was determined. Biochemical assay results are presented as the percent Inhibition of specific binding in Table B1b, or estimated Ki values in Table B1c.

[3] = target: T3, Human adrenergic α1B receptor (Homo sapiens, UniProt P35368); experiment: Radioligand binding, adrenergic α1B (Protocol Group B); conditions: Protocol Group B; for Percentage inhibition of ligand binding, Adrenergic α1B (0.1 μM): 0.1 μM compound; for Percentage inhibition of ligand binding, Adrenergic α1B (0.3 μM): 0.3 μM compound
T3 sequence (P35368 1-520): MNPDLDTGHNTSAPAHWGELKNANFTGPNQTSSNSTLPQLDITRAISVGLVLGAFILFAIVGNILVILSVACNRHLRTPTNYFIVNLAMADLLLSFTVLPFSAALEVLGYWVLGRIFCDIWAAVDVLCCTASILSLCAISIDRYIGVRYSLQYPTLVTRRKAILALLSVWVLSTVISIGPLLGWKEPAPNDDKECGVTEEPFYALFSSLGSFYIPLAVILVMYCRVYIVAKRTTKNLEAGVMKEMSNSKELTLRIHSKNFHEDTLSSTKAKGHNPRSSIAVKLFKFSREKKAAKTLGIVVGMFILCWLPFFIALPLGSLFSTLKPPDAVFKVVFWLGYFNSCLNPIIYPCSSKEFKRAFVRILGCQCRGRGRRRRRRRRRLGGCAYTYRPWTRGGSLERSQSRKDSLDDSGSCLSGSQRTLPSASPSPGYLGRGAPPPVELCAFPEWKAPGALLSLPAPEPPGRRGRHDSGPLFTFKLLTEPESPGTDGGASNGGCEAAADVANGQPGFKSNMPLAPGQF
Procedure: To evaluate the activity of compounds in radioligand binding assays, Human adrenergic α1B receptor obtained from recombinant cell membrane from Milipore. Binding experiments were carried out in Tris-HCl buffer (50 mM Tris-HCl buffer, pH 7.4, 10 mM Mgcl2, 1 mM EDTA) as recommended by Milipore. Compounds were incubated with 0.3 nM [^3H]Prazosin for 60 min at 25° C. Non-specific binding was estimated in the presence of 10 μM prazosin. Receptor proteins were harvested on 0.33% PEI(poly-ethylenemine) soaked GFC filter mat, the specifically bound [^3H]Prazosin were counted to determine total binding. Compounds were screened at various concentrations, using 1% DMSO as vehicle. percent inhibition of specific binding was determined. Biochemical assay results are presented as the percent Inhibition of specific binding in Table B1b, or estimated Ki values in Table B1c.

Row | Structure (SMILES) | Percentage inhibition of ligand binding, Adrenergic α2B (10 nM) ([1]; 10 nM compound) [%] | Percentage inhibition of ligand binding, Adrenergic α2B (30 nM) [1] | Percentage inhibition of ligand binding, Adrenergic α2B (0.1 μM) [1] [%] | Percentage inhibition of ligand binding, Adrenergic α2A (0.1 μM) [2] [%] | Percentage inhibition of ligand binding, Adrenergic α2A (0.3 μM) ([2]; 0.3 μM compound, 0.3 µM) [%] | Percentage inhibition of ligand binding, Adrenergic α1B (0.1 μM) ([3]; 0.1 µM) [%] | Percentage inhibition of ligand binding, Adrenergic α1B (0.3 μM) [3] [%] | inhibition at 0.3 µM ([2]; 0.3 μM compound, read-out: Percentage inhibition of ligand binding, Adrenergic α2A (0.3 μM)) [%] | Percentage inhibition of ligand binding, Adrenergic α2A (0.3 μM) ([2]; 0.3 μM compound) [%] | inhibition at 0.01 µM ([1]; 10 nM compound, read-out: Percentage inhibition of ligand binding, Adrenergic α2B (10 nM)) [%] | Percentage inhibition of ligand binding, Adrenergic α1B (0.1 μM) [3] [%]
1 | OC(Cn1c2c(c3cc(F)ccc31)C1CCCN1CC2)c1ccncc1 (single isomer, unassigned) [18a] | 41 | 58% | 80 | −7 | 38 | 20 | 55 |  |  |  | 
2 | OC(Cn1c2c(c3cc(F)ccc31)C1CCCN1CC2)c1ccncc1 (single isomer, unassigned) [18c] | 17 | 13% | 22 | 7 | 0 | 5 | 6 |  |  |  | 
3 | OC(Cn1c2c(c3cc(F)ccc31)C1CCCN1CC2)c1ccncc1 (single isomer, unassigned) [18d] | 11 | 32% and 36% | 79 | 8 | 20 | 15 | 24 |  |  |  | 
4 | Cc1cc(C)c2c(c1)c1c(n2CC(C)(O)c2ccncc2)CCN2CCCC12 (single isomer, unassigned) [19c] | −13 | −12% | 6 | −7 | 1 | −5 | −1 |  |  |  | 
5 | Cc1cc(C)c2c(c1)c1c(n2CC(C)(O)c2ccncc2)CCN2CCCC12 (single isomer, unassigned) [19d] | −9 | −4% | −1 | −8 | −5 | −8 | −5 |  |  |  | 
6 | Cc1ccc2c(c1)c1c(n2CC(O)c2cccnc2)CC2CCCN2C1 (single isomer, unassigned) [27a] | 6 | 10% | 33 | 3 |  | 0 | 15 | 20 |  |  | 
7 | Cc1ccc2c(c1)c1c(n2CC(O)c2cccnc2)CC2CCCN2C1 (single isomer, unassigned) [27b] | 26 | 48% | 67 | 10 |  | 13 | 41 |  | 20 |  | 
8 | CC(O)(Cn1c2c(c3cc(F)ccc31)C1CCCN1CC2)c1ccncc1 (single isomer, unassigned) [31c] |  | −2% | 45 | 0 | −21 | 1 | −4 |  |  | 3 | 
9 | CC(O)(Cn1c2c(c3cc(F)ccc31)C1CCCN1CC2)c1ccncc1 (single isomer, unassigned) [31d] | 4 | −11% | 17 | −11 | 6 | 0 | 11 |  |  |  | 
10 | Cc1ccc2c(c1)c1c(n2CC(C)(O)c2cnc3ccccc3c2)CCN(C)C1 (single isomer, unassigned) [32b] | 0 | 14% |  | −5 | 9 |  | 13 |  |  |  | −1

From patent publication US20150315188A1, “COMPOUNDS AND METHODS FOR TREATMENT OF HYPERTENSION” (MEDIVATION TECHNOLOGIES, INC., priority 2012, published 2015)
